Experimental data as given in patent US20250092001A1, “NOVEL EXCITATORY AMINO ACID GLUTAMATE TRANSPORT MODULATORS AND METHODS USING THE SAME” (Drexel University, priority 2022, published 2025).
Read-outs that look alike come from different tables or passages of the source.

Experiment: Pharmacokinetics of GT467 and GT511 in rats, plasma and brain (IV, IP, PO)
Format: in vivo, rat
Conditions: for AUC0-t: 0 to 24 hrs
Protocol: Pharmacokinetics (PK) study for GT951 was conducted at Melior Discovery Services (Exton, PA). Fifteen male CD-1 mice 23-50 g was used for the study and the mice were housed 3 per cage. PK studies for GT467 and GT511 were conducted at Piramal Pharma solutions under approved protocols (Pune, India). One hundred and sixty-eight male Wistar rats were used for the study and housed 4 per cage. All animals were maintained on a standard 12 h light cycle and given free access to water and standard rodent chow. Food and water were available ad libitum. Animals were not fasted for any portion of the study and animals were acclimated to the animal care facility for seven days prior to the start of the experiment. The holding room and procedure room temperature was 21-23° C. and humidity was at 40-45% during the experiment (within the normal range of the care facility). All procedures were completed according to Institutional Animal Care and Use Committee (IACUC) approved protocols for housing and for PK studies.
Rats were dosed with the drug and blood and brain samples were collected at 0.5, 1, 2, 4, 8 and 24 h time points. Blood was collected via the sub-lingual vein under anesthesia into tubes containing Na2EDTA as an anticoagulant. Plasma fraction was separated by centrifuging the samples at 10,000 rpm for 5 min and the plasma was transferred to a cryo tube and stored at −80 C. Animals were euthanized and the brain was rapidly removed on ice and weighed. Brain was homogenized in Milli Q water and the homogenate was stored at −80 C until further use. Bioanalysis of the samples was performed using the SCIEX QTRAP 5500 LCMS/MS system with Phenomenex synergy C18 column and carbamazepine as internal standard. A methanol extraction procedure was used to precipitate the proteins in the sample. In addition to the internal standards, drug free plasma and brain samples were prepared for calibration and quantification standards. All samples were within the detectable range of the standard curves. 50 μl of the sample was added to 200 μl of the working solution of the internal standard and centrifuged for 5 min at 10,000 rpm. 60 μl of the supernatant was added to 140 μl of water and mixed well prior to transferring them for quantitative analysis on LCMS.
Specifically, rats were administered with GT467 or GT511 intraperitoneally (IP), intravenously (IV) or orally (PO). The concentration of the administered compounds measured at various timepoints in the plasma are depicted in FIGS. 4A and 4B, the concentrations of the administered compounds measured at various timepoints in the brain are depicted in FIGS. 5A and 5B.
Furthermore, pharmacokinetic parameters such as the peak concentration (Cmax), the time to reach the peak concentration (Tmax), the area under curve from time 0 to T (i.e., 24 hrs) (AUC0-t), the area under curve from time 0 to infinite (AUC0-∞), the half-life (t1/2), the oral clearance (CL/F), the volume of distribution of drug observed (Vz_F_obs), and the percentage of bioavailability (% Bioavailability) were also measured or calculated.

[1] = male, Wistar, rat plasma, IP 10 mg/kg
[2] = male, Wistar, rat plasma, IV 5 mg/kg
[3] = male, Wistar, rat plasma, PO 10 mg/kg

- AUC(0-inf) [1]: 0.556 µg·h/mL
- Cmax [1]: 0.262 µg/mL
- AUC0-t (male, Wistar, rat plasma, IP 10 mg/kg, read-out: AUC0-t): 0.537 µg·h/mL
- CL/F (male, Wistar, rat plasma, IP 10 mg/kg, read-out: CL/F (converted)): 18.1 L/h/kg
- AUC(0-inf) [2]: 0.321 µg·h/mL
- Cmax [2]: 0.307 µg/mL
- AUC0-t (male, Wistar, rat plasma, IV 5 mg/kg, read-out: AUC0-t): 0.316 µg·h/mL
- AUC(0-inf) [3]: 0.798 µg·h/mL
- Cmax [3]: 0.204 µg/mL
- AUC0-t (male, Wistar, rat plasma, PO 10 mg/kg, read-out: AUC0-t): 0.507 µg·h/mL
- CL/F (male, Wistar, rat plasma, PO 10 mg/kg, read-out: CL/F (converted)): 17.9 L/h/kg
- AUC0-∞ (rat brain, IP 10 mg/kg): 4442.19 ng·h/g
- Tmax (rat brain, IP 10 mg/kg): 30 min
- t1/2 (rat brain, IP 10 mg/kg): 97.2 min
- AUC0-t (rat brain, IP 10 mg/kg): 4414.35 ng·h/g
- AUC0-∞ (rat brain, IV 5 mg/kg): 2015.59 ng·h/g
- Tmax (rat brain, IV 5 mg/kg): 30 min
- t1/2 (rat brain, IV 5 mg/kg): 61.8 min
- AUC0-t (rat brain, IV 5 mg/kg): 1959.70 ng·h/g
- AUC0-∞ (rat brain, PO 10 mg/kg): 3080.18 ng·h/g
- Tmax (rat brain, PO 10 mg/kg): 52.8 min
- t1/2 (rat brain, PO 10 mg/kg): 109 min
- AUC0-t (rat brain, PO 10 mg/kg): 2816.80 ng·h/g
- % Bioavailability (rat plasma, IP 10 mg/kg): 85.03%
- Tmax (rat plasma, IP 10 mg/kg): 30 min
- Vz_F_obs (rat plasma, IP 10 mg/kg): 26.470969 L/kg
- t1/2 (rat plasma, IP 10 mg/kg): 60.96 min
- CL/F (rat plasma, IV 5 mg/kg): 16.390725 L/h/kg
- Tmax (rat plasma, IV 5 mg/kg): 30 min
- Vz_F_obs (rat plasma, IV 5 mg/kg): 16.170403 L/kg
- t1/2 (rat plasma, IV 5 mg/kg): 39.1 min
- % Bioavailability (rat plasma, PO 10 mg/kg): 80.34%
- Tmax (rat plasma, PO 10 mg/kg): 52.5 min
- Vz_F_obs (rat plasma, PO 10 mg/kg): 95.358274 L/kg
- t1/2 (rat plasma, PO 10 mg/kg): 285.8 min
Compound: COc1ccc(NC(=O)C(=O)NCC(c2ccccc2)N2CCN(C)CC2)cc1 (stereo not drawn) [GT467, N1-(4-methoxyphenyl)-N2-(2-(4-methylpiperazin-1-yl)-2-phenylethyl)oxalamide]
- Plasma concentration and brain concentration by route of administration (rats, IP, IV, PO): high plasma concentration and brain concentration
